Source: patent US20250325467A1, “COMPOSITIONS FOR PREVENTING OR TREATING SKIN AGING” (ESTETRA SRL, priority 2021, published 2025)

Legend:
[1] = Tissue distribution (QWBA) of [^14C]-estetrol after a single oral dose in partially pigmented rats; conditions: for Concentration of radioactivity, Skin: Non-pigmented / Concentration of radioactivity, Skin: Pigmented / Tissue:Blood ratio, Skin: Non-pigmented / Tissue:Blood ratio, Skin: Pigmented / Total amount of radioactivity, Skin (non-pigmented) / Total amount of radioactivity, Skin (pigmented): single oral 15 mg/kg
Protocol: Tissue distribution was determined in female rats (partially pigmented and non-pigmented) using [^14C]-estetrol.
A group of six female Lister Hooded rats each received a single oral dose of [^14C]-estetrol. At each selected time (see below) one animal was killed (by overdose of CO2) followed by immediate snap freezing in hexane/solid CO2. The carcasses were retained for examination of the tissue distribution of radioactivity using the technique of quantitative whole body autoradiography (QWBA).
Times for analysis were: (0.5, 8, and 24 hours, 7, 14 and 35 days)
Frozen carcasses were subjected to whole-body autoradiography.
Where concentrations are reported, radioactivity was assumed to be associated with [^14C]-estetrol or any metabolic products derived from [^14C]-estetrol. The specific activities of the dosed test compounds were used for the calculation of concentrations in all cases. Recoveries of radioactivity are reported as percentage of administered radioactivity (% dose). Radioactivity concentrations are also reported as pg equivalents/g.

[2] = Tissue distribution (QWBA) of [^14C]-estetrol after a single oral dose in non-pigmented rats; assay type: in vivo; conditions: single oral 15 mg/kg, 3 hour (Rat 08F)
[3] = as above; assay type: in vivo, rat; conditions: for Concentration of radioactivity, Skin: Non-pigmented / Tissue:Blood ratio, Skin: Non-pigmented: non-pigmented rats, single oral 15 mg/kg
Protocol: Times for analysis were: 0.5, 1, 2, 5, 8, 24 and 48 hours
Distribution of radioactivity in tissues was determined and quantified using the Fuji FLA-5100 fluorescent image analyser and associated Tina and SeeScan software. Tissue concentrations of radioactivity were determined using calibrated autoradiographic microscales produced by GE Healthcare. A standard curve was produced using the microscales from which tissue concentrations of radioactivity were determined (nCi/g). These values were then converted into pg equivalents/g using the specific activity of the dose formulation.
Radioactivity concentrations are also reported as […] equivalents/g.

[4] = partially pigmented rats, 0.5 hours
[5] = partially pigmented rats, 8 hours
[6] = partially pigmented rats, 24 hours
[7] = partially pigmented rats, 7 days
[8] = partially pigmented rats, 14 days
[9] = partially pigmented rats, 35 days

Q: With [^14C]-estetrol as the substance, how does the “concentration of radioactivity, liver (greatest concentration)” value ([1]; female partially pigmented rats, single oral dose, 0.5 hours) read?
A: 13.7 μg equivalents/g

Q: And the “Concentration of radioactivity, Skin: Non-pigmented” value (shortened to “Concentration … Non-pigmented”) [1, 4]?
A: 1.89 microgram equivalents/gram

Q: What about the “Concentration of radioactivity, Skin: Pigmented” value (“Concentration … Skin: Pigmented” for short) [1, 4] of the same substance?
A: 2.85 microgram equivalents/gram

Q: And the “Tissue:Blood ratio, Skin: Non-pigmented” value [1, 4]?
A: 0.71

Q: And the “Tissue:Blood ratio, Skin: Pigmented” value [1, 4]?
A: 1.07

Q: What about the “Total amount of radioactivity, Skin (non-pigmented)” value (“Total amount … (non-pigmented)” for short) [1, 4] of the same substance?
A: 1.136 % dose administered/tissue

Q: What about the “Total amount of radioactivity, Skin (pigmented)” value (shortened to “Total amount … (pigmented)”) [1, 4] of the same substance?
A: 1.714 % dose administered/tissue

Q: What about the “Concentration … Non-pigmented” value [1, 5] of the same substance?
A: 0.090 microgram equivalents/gram

Q: What about the “Concentration … Skin: Pigmented” value [1, 5] of the same substance?
A: 0.161 microgram equivalents/gram

Q: What about the “Tissue:Blood ratio, Skin: Non-pigmented” value [1, 5] of the same substance?
A: 0.56

Q: What about the “Tissue:Blood ratio, Skin: Pigmented” value [1, 5] of the same substance?
A: 1.01

Q: What about the “Total amount … (non-pigmented)” value [1, 5] of the same substance?
A: 0.059 % dose administered/tissue

Q: What about the “Total amount … (pigmented)” value [1, 5] of the same substance?
A: 0.099 % dose administered/tissue

Q: And the “Concentration … Non-pigmented” value [1, 6]?
A: BLQ

Q: What about the “Concentration … Skin: Pigmented” value [1, 6] of the same substance?
A: 0.113 microgram equivalents/gram

Q: What about the “Total amount … (non-pigmented)” value [1, 6] of the same substance?
A: <0.041 % dose administered/tissue

Q: What about the “Total amount … (pigmented)” value [1, 6] of the same substance?
A: 0.061 % dose administered/tissue

Q: And the “Concentration … Non-pigmented” value [1, 7]?
A: BLQ

Q: What about the “Concentration … Skin: Pigmented” value [1, 7] of the same substance?
A: BLQ

Q: And the “Total amount … (non-pigmented)” value [1, 7]?
A: <0.043 % dose administered/tissue

Q: And the “Total amount … (pigmented)” value [1, 7]?
A: <0.043 % dose administered/tissue

Q: What about the “Concentration … Non-pigmented” value [1, 8] of the same substance?
A: BLQ

Q: And the “Concentration … Skin: Pigmented” value [1, 8]?
A: BLQ

Q: What about the “Total amount … (non-pigmented)” value [1, 8] of the same substance?
A: <0.038 % dose administered/tissue

Q: What about the “Total amount … (pigmented)” value [1, 8] of the same substance?
A: <0.038 % dose administered/tissue

Q: What about the “Concentration … Non-pigmented” value [1, 9] of the same substance?
A: BLQ

Q: And the “Concentration … Skin: Pigmented” value [1, 9]?
A: BLQ

Q: What about the “Total amount … (non-pigmented)” value [1, 9] of the same substance?
A: <0.041 % dose administered/tissue

Q: And the “Total amount … (pigmented)” value [1, 9]?
A: <0.041 % dose administered/tissue

Q: What about the “concentration of radioactivity, liver” value ([1]; partially pigmented rats, single oral dose, 7 days after dosing) of the same substance?
A: 0.410 μg equivalents/g

Q: And the “concentration of radioactivity, majority of tissues (BLQ)” value ([1]; partially pigmented rats, single oral dose, by 24 hours)?
A: < 0.076 μg equivalents/g

Q: And the “concentration of radioactivity, all analyzed tissues except liver, including uveal tract and pigmented skin” value ([1]; partially pigmented rats, single oral dose, by 7 days)?
A: at or below the limit of quantification

Q: And the “Tissue:Blood ratio, Skin: Non-pigmented” value [2]?
A: 0.99

Q: And the “concentration of radioactivity, liver (greatest concentration)” value ([3]; female non-pigmented rats, single oral dose, 0.5 hours)?
A: 12.5 microgram equivalents/gram

Q: And the “Concentration … Non-pigmented” value ([3]; 0.5 hours)?
A: 2.59 microgram equivalents/gram

Q: And the “Tissue:Blood ratio, Skin: Non-pigmented” value ([3]; 0.5 hours)?
A: 1.05

Q: And the “Concentration … Non-pigmented” value ([3]; 1 hour)?
A: 0.771 microgram equivalents/gram

Q: And the “Concentration … Non-pigmented” value ([3]; 2 hours)?
A: 0.465 microgram equivalents/gram

Q: And the “Tissue:Blood ratio, Skin: Non-pigmented” value ([3]; 2 hours)?
A: 1.72

Q: And the “Concentration … Non-pigmented” value ([3]; 5 hours)?
A: 0.189 microgram equivalents/gram

Q: What about the “Tissue:Blood ratio, Skin: Non-pigmented” value ([3]; 5 hours) of the same substance?
A: 1.66

Q: What about the “Concentration … Non-pigmented” value ([3]; 8 hours) of the same substance?
A: 0.361 microgram equivalents/gram

Q: And the “Tissue:Blood ratio, Skin: Non-pigmented” value ([3]; 8 hours)?
A: 1.77

Q: What about the “Concentration … Non-pigmented” value ([3]; 24 hours) of the same substance?
A: BLQ

Q: What about the “Concentration … Non-pigmented” value ([3]; 48 hours) of the same substance?
A: BLQ
